In patent US11000033B2, “Ketone or oxime compound, and herbicide” (NISSAN CHEMICAL CORPORATION, priority 2014, dated 2021):

Legend:
Type in all cases: in vivo
[1] = test system: Echinochloa crus-galli var. crus-galli; assay: Test Example 3: herbicidal effect by foliage application, Wagner pot (symbol H); conditions: application herbicide amount 320 g/ha
Outline: (§1)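 Weeds and rice were sown in alluvial soil under 0.1–0.5 cm of standing water and grown for 14 days in a 25–30 °C greenhouse. An emulsion of the compound, diluted in water to a set dose, was sprayed evenly onto the foliage. Effect was scored against fixed criteria 3 weeks after treatment.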

Leptochloa chinensis = assay: Test Example 3: herbicidal effect by foliage application, Wagner pot (symbol D); conditions: application herbicide amount 320 g/ha
Outline: as §1

Cyperus difformis = assay: Test Example 3: herbicidal effect by foliage application, Wagner pot (symbol E); conditions: application herbicide amount 320 g/ha
Outline: as §1

[2] = test system: directly sowed rice plant; assay: Test Example 3: effect on crop by foliage application, Wagner pot (symbol b); conditions: application herbicide amount 320 g/ha
Outline: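 Greenhouse culture at 25–30 °C of seeded rice, Cyperus difformis, Leptochloa chinensis and Echinochloa crus-galli var. crus-galli, in alluvial soil held under 0.1–0.5 cm of water in a Wagner pot.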

Digitaria ciliaris [3] = assay: Test Example 4: herbicidal effect by soil treatment (symbol F); conditions: application herbicide amount 320 g/ha
Source text: (§2) Herbicidal Effect Test by Soil Treatment
(§3) Sterilized diluvial soil was placed in a plastic box having a length of 21 cm, a width of 13 cm, and a depth of 7 cm. Each of the seeds of Digitaria ciliaris, Setaria viridis, Echinochloa crus-galli var. crus-galli, Avena fatua, Alopecurus myosuroides, Lolium multiflorum Lam., Apera spica-venti, Abutilon theophrasti, Amaranthus retroflexus, Chenopodium album, Stellaria media, Galium spurium, Veronica persica, corn, soybean, rice, wheat, beet, and rapeseed was sowed in a spot-like manner and was covered with the soil of a thickness of about 1.5 cm. Subsequently, the emulsion agent of the compound present invention prepared in accordance with Formulation Example 2 was diluted with water so as to be a predetermined herbicide amount and the diluted emulsion agent was uniformly applied to the surface of the soil with a small-size spray. The plastic box was placed in a greenhouse of 25° C. to 30° C. to grow plant. 3 weeks later from the herbicide application, the effect to each plant was investigated in accordance with the criteria of Test Example 1.

Setaria viridis [4] = assay: Test Example 4: herbicidal effect by soil treatment (symbol G); conditions: application herbicide amount 320 g/ha
Source text: as §2, §3

[5] = test system: Echinochloa crus-galli var. crus-galli; assay: Test Example 4: herbicidal effect by soil treatment (symbol H); conditions: application herbicide amount 320 g/ha
Source text: as §2, §3

Avena fatua [6] = assay: Test Example 4: herbicidal effect by soil treatment (symbol I); conditions: application herbicide amount 320 g/ha
Source text: as §2, §3

Alopecurus myosuroides [7] = assay: Test Example 4: herbicidal effect by soil treatment (symbol J); conditions: application herbicide amount 320 g/ha
Source text: as §2, §3

Lolium multiflorum Lam. [8] = assay: Test Example 4: herbicidal effect by soil treatment (symbol K); conditions: application herbicide amount 320 g/ha
Source text: as §2, §3

Apera spica-venti [9] = assay: Test Example 4: herbicidal effect by soil treatment (symbol L); conditions: application herbicide amount 320 g/ha
Source text: as §2, §3

Abutilon theophrasti [10] = assay: Test Example 4: herbicidal effect by soil treatment (symbol M); conditions: application herbicide amount 320 g/ha
Source text: as §2, §3

Amaranthus retroflexus [11] = assay: Test Example 4: herbicidal effect by soil treatment (symbol N); conditions: application herbicide amount 320 g/ha
Source text: as §2, §3

Stellaria media [12] = assay: Test Example 4: herbicidal effect by soil treatment (symbol P); conditions: application herbicide amount 320 g/ha
Source text: as §2, §3

Veronica persica [13] = assay: Test Example 4: herbicidal effect by soil treatment (symbol R); conditions: application herbicide amount 320 g/ha
Source text: as §2, §3

corn [14] = assay: Test Example 4: effect on crop by soil treatment (symbol c); conditions: application herbicide amount 320 g/ha
Source text: as §2
(§4) Sterilized diluvial soil was placed in a plastic box having a length of 21 cm, a width of 13 cm, and a depth of 7 cm. Each of the seeds of Digitaria ciliaris, Setaria viridis, Echinochloa crus-galli var. crus-galli, Avena fatua, Alopecurus myosuroides, Lolium multiflorum Lam., Apera spica-venti, Abutilon theophrasti, Amaranthus retroflexus, Chenopodium album, Stellaria media, Galium spurium, Veronica persica, corn, soybean, rice, wheat, beet, and rapeseed was sowed in a spot-like manner and was covered with the soil of a thickness of about 1.5 cm. […] The plastic box was placed in a greenhouse of 25° C. to 30° C. to grow plant.

soybean [15] = assay: Test Example 4: effect on crop by soil treatment (symbol d); conditions: application herbicide amount 320 g/ha
Source text: as §2, §4

rice = assay: Test Example 4: effect on crop by soil treatment (symbol b); conditions: application herbicide amount 320 g/ha
Source text: as §2, §4

wheat [16] = assay: Test Example 4: effect on crop by soil treatment (symbol e); conditions: application herbicide amount 320 g/ha
Source text: as §2, §4

beet [17] = assay: Test Example 4: effect on crop by soil treatment (symbol f); conditions: application herbicide amount 320 g/ha
Source text: as §2, §4

rapeseed [18] = assay: Test Example 4: effect on crop by soil treatment (symbol g); conditions: application herbicide amount 320 g/ha
Source text: as §2, §4

Digitaria ciliaris [19] = assay: Test Example 5: herbicidal effect by foliage application, plastic box (symbol F); conditions: 320 g/ha, 3 weeks after application
Outline: (§5)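 Herbicide, formulated as an emulsion and diluted in water, is sprayed onto the aerial parts of 14-day seedlings. These were grown at 25° C. to 30° C. in sterilized diluvial soil; effects are graded after 3 weeks.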

Setaria viridis [20] = assay: Test Example 5: herbicidal effect by foliage application, plastic box (symbol G); conditions: 320 g/ha, 3 weeks after application
Outline: as §5

[21] = test system: Echinochloa crus-galli var. crus-galli; assay: Test Example 5: herbicidal effect by foliage application, plastic box (symbol H); conditions: 320 g/ha, 3 weeks after application
Outline: as §5

Avena fatua [22] = assay: Test Example 5: herbicidal effect by foliage application, plastic box (symbol I); conditions: 320 g/ha, 3 weeks after application
Outline: as §5

Alopecurus myosuroides [23] = assay: Test Example 5: herbicidal effect by foliage application, plastic box (symbol J); conditions: 320 g/ha, 3 weeks after application
Outline: as §5

Lolium multiflorum Lam. [24] = assay: Test Example 5: herbicidal effect by foliage application, plastic box (symbol K); conditions: 320 g/ha, 3 weeks after application
Outline: as §5

Apera spica-venti [25] = assay: Test Example 5: herbicidal effect by foliage application, plastic box (symbol L); conditions: 320 g/ha, 3 weeks after application
Outline: as §5

Abutilon theophrasti [26] = assay: Test Example 5: herbicidal effect by foliage application, plastic box (symbol M); conditions: 320 g/ha, 3 weeks after application
Outline: as §5

Amaranthus retroflexus [27] = assay: Test Example 5: herbicidal effect by foliage application, plastic box (symbol N); conditions: 320 g/ha, 3 weeks after application
Outline: as §5

Stellaria media [28] = assay: Test Example 5: herbicidal effect by foliage application, plastic box (symbol P); conditions: 320 g/ha, 3 weeks after application
Outline: as §5

Galium spurium = assay: Test Example 5: herbicidal effect by foliage application, plastic box (symbol Q); conditions: 320 g/ha, 3 weeks after application
Outline: as §5

Veronica persica [29] = assay: Test Example 5: herbicidal effect by foliage application, plastic box (symbol R); conditions: 320 g/ha, 3 weeks after application
Outline: as §5

corn [30] = assay: Test Example 5: effect on crop by foliage application, plastic box (symbol c); conditions: 320 g/ha, 3 weeks after application
Outline: (§6)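 Seeds were sown in spots in sterilized diluvial soil held in a plastic box 21 cm × 13 cm × 7 cm deep, covered with about 1.5 cm of soil, and grown in a greenhouse at 25° C. to 30° C.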

soybean [31] = assay: Test Example 5: effect on crop by foliage application, plastic box (symbol d); conditions: 320 g/ha, 3 weeks after application
Outline: as §6

rice plant = assay: Test Example 5: effect on crop by foliage application, plastic box (symbol b); conditions: 320 g/ha, 3 weeks after application
Outline: as §6

wheat [32] = assay: Test Example 5: effect on crop by foliage application, plastic box (symbol e); conditions: 320 g/ha, 3 weeks after application
Outline: as §6

beet [33] = assay: Test Example 5: effect on crop by foliage application, plastic box (symbol f); conditions: 320 g/ha, 3 weeks after application
Outline: as §6

rapeseed [34] = assay: Test Example 5: effect on crop by foliage application, plastic box (symbol g); conditions: 320 g/ha, 3 weeks after application
Outline: as §6

SMILES: CCOC(=O)C(C(=O)C1CCCC1)C1CC(O)=C(c2c(C)cc(C)cc2C)C1=O (stereo not drawn) [2-027]
- herbicidal effect on H (Echinochloa crus-galli var. crus-galli), grade 0-5 [1]: 3 (Herbicidal ratio of 40% or higher and lower than 70%)
- herbicidal effect on D (Leptochloa chinensis), grade 0-5 (Leptochloa chinensis): 0 (Herbicidal ratio of 5% or lower (almost no effect))
- herbicidal effect on E, grade 0-5 (Cyperus difformis): 0 (Herbicidal ratio of 5% or lower (almost no effect))
- effect on crop b (directly sowed rice plant), grade 0-5 [2]: 5 (Herbicidal ratio of 90% or more (almost completely withered))
- F: Digitaria ciliaris, herbicidal effect grade (Digitaria ciliaris [3]): 3 (Herbicidal ratio of 40% or higher and lower than 70%)
- G: Setaria viridis, herbicidal effect grade (Setaria viridis [4]): 5 (Herbicidal ratio of 90% or more (almost completely withered))
- H: Echinochloa crus-galli var. crus-galli, herbicidal effect grade [5]: 3 (Herbicidal ratio of 40% or higher and lower than 70%)
- I: Avena fatua, herbicidal effect grade (Avena fatua [6]): 0 (Herbicidal ratio of 5% or lower (almost no effect))
- J: Alopecurus myosuroides, herbicidal effect grade (Alopecurus myosuroides [7]): 1 (Herbicidal ratio of 5% or higher and lower than 20%)
- K: Lolium multiflorum Lam., herbicidal effect grade (Lolium multiflorum Lam. [8]): 2 (Herbicidal ratio of 20% or higher and lower than 40%)
- L: Apera spica-venti, herbicidal effect grade (Apera spica-venti [9]): 0 (Herbicidal ratio of 5% or lower (almost no effect))
- M: Abutilon theophrasti, herbicidal effect grade (Abutilon theophrasti [10]): 0 (Herbicidal ratio of 5% or lower (almost no effect))
- N: Amaranthus retroflexus, herbicidal effect grade (Amaranthus retroflexus [11]): 0 (Herbicidal ratio of 5% or lower (almost no effect))
- P: Stellaria media, herbicidal effect grade (Stellaria media [12]): 0 (Herbicidal ratio of 5% or lower (almost no effect))
- R: Veronica persica, herbicidal effect grade (Veronica persica [13]): 0 (Herbicidal ratio of 5% or lower (almost no effect))
- c: corn, effect on crop grade (corn [14]): 1 (Herbicidal ratio of 5% or higher and lower than 20%)
- d: soybean, effect on crop grade (soybean [15]): 0 (Herbicidal ratio of 5% or lower (almost no effect))
- b: directly sowed rice plant, effect on crop grade (rice): 4 (Herbicidal ratio of 70% or higher and lower than 90%)
- e: wheat, effect on crop grade (wheat [16]): 0 (Herbicidal ratio of 5% or lower (almost no effect))
- f: beet, effect on crop grade (beet [17]): 0 (Herbicidal ratio of 5% or lower (almost no effect))
- g: rapeseed, effect on crop grade (rapeseed [18]): 0 (Herbicidal ratio of 5% or lower (almost no effect))
- F: Digitaria ciliaris, herbicidal effect grade (Digitaria ciliaris [19]): 0 (Herbicidal ratio of 5% or lower (almost no effect))
- G: Setaria viridis, herbicidal effect grade (Setaria viridis [20]): 5 (Herbicidal ratio of 90% or more (almost completely withered))
- H: Echinochloa crus-galli var. crus-galli, herbicidal effect grade [21]: 3 (Herbicidal ratio of 40% or higher and lower than 70%)
- I: Avena fatua, herbicidal effect grade (Avena fatua [22]): 1 (Herbicidal ratio of 5% or higher and lower than 20%)
- J: Alopecurus myosuroides, herbicidal effect grade (Alopecurus myosuroides [23]): 2 (Herbicidal ratio of 20% or higher and lower than 40%)
- K: Lolium multiflorum Lam., herbicidal effect grade (Lolium multiflorum Lam. [24]): 4 (Herbicidal ratio of 70% or higher and lower than 90%)
- L: Apera spica-venti, herbicidal effect grade (Apera spica-venti [25]): 0 (Herbicidal ratio of 5% or lower (almost no effect))
- M: Abutilon theophrasti, herbicidal effect grade (Abutilon theophrasti [26]): 0 (Herbicidal ratio of 5% or lower (almost no effect))
- N: Amaranthus retroflexus, herbicidal effect grade (Amaranthus retroflexus [27]): 0 (Herbicidal ratio of 5% or lower (almost no effect))
- P: Stellaria media, herbicidal effect grade (Stellaria media [28]): 0 (Herbicidal ratio of 5% or lower (almost no effect))
- Q: Galium spurium, herbicidal effect grade (Galium spurium): 0 (Herbicidal ratio of 5% or lower (almost no effect))
- R: Veronica persica, herbicidal effect grade (Veronica persica [29]): 0 (Herbicidal ratio of 5% or lower (almost no effect))
- c: corn, effect on crop grade (corn [30]): 1 (Herbicidal ratio of 5% or higher and lower than 20%)
- d: soybean, effect on crop grade (soybean [31]): 0 (Herbicidal ratio of 5% or lower (almost no effect))
- b: directly sowed rice plant, effect on crop grade (rice plant): 4 (Herbicidal ratio of 70% or higher and lower than 90%)
- e: wheat, effect on crop grade (wheat [32]): 0 (Herbicidal ratio of 5% or lower (almost no effect))
- f: beet, effect on crop grade (beet [33]): 0 (Herbicidal ratio of 5% or lower (almost no effect))
- g: rapeseed, effect on crop grade (rapeseed [34]): 1 (Herbicidal ratio of 5% or higher and lower than 20%)
